What all share (assay type): biochemical
Experiment [1] addresses T1, PRMT1 (Homo sapiens, UniProt Q99873). The experiment in a line: Inhibition mechanism kinetic analysis, SAHH-coupled fluorescence assay with PRMT1. As for the experimental part:
The fluorescence-based SAHH-coupled assay was employed for the enzyme kinetic study. Varying concentrations of SAM (from 0.5 to 8 Km) with 5 μM fixed concentration of H4-21 or varying concentration of H4-21 (from 0.5 to 8 Km) with 10 μM fixed concentration of SAM was included in reactions with a series concentration of compounds. All the IC50 values were determined in triplicate. Fluorescence was monitored on a BMG CLARIOstar microplate with excitation at 380 nm and emission at 505 nm. Data were processed using GraphPad Prism software 7.0.

Experiment [2] addresses T2, PRMT4 (Homo sapiens, UniProt Q86X55).
T2 construct: purchased Reaction Biology
T2 sequence (Q86X55 1-608): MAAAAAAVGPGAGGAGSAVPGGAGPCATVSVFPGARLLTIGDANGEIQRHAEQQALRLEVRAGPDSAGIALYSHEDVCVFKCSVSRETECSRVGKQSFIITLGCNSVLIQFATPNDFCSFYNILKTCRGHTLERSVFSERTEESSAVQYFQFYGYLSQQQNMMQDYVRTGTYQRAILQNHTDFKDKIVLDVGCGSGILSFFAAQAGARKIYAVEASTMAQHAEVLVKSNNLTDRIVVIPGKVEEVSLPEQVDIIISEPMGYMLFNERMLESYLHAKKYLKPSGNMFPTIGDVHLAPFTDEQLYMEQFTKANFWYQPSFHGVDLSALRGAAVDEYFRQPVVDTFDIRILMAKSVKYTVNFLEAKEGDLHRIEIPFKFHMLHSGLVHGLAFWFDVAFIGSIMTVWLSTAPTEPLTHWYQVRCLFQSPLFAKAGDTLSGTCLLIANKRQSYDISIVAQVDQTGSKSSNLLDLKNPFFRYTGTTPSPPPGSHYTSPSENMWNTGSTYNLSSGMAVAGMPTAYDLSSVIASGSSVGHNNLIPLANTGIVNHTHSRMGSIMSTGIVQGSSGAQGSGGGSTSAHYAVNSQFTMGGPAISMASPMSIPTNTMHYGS
The experiment in a line: HotSpot radioisotope 3H-AdoMet methyltransferase assay, PRMT4. Conditions: IC50 (nM) PRMT4, 10 doses, threefold serial dilution. As for the experimental part:
(§1) Future studies will focus on obtaining structural information of II757 bound to PRMTs to inform how to connect to a substrate portion to increase both potency and selectivity for each PRMT.
(§2) Figure 6 Selectivity of II757 against the panel of PRMTs. II757 was tested in 10 doses with threefold serial dilution in the HotSpot methyltransferase assay at reaction biology. TEXT PRINTED IN THE PICTURE: II757: IC50 (nM) PRMT1: 16.4; IC50 (nM) PRMT3: 321; IC50 (nM) PRMT4: 5.05; IC50 (nM) PRMT5/MEP50 Complex: 18.2; IC50 (nM) PRMT5 (C449S)/MEP50: 36.6; IC50 (nM) PRMT6: 30.5; IC50 (nM) PRMT7: 555; IC50 (nM) PRMT8: 32.1

Experiment [3] addresses T1, PRMT1. As to the kind of experiment: SAHH-coupled fluorescence assay, PRMT1 inhibition. As for the experimental part: A fluorescence-based SAHH-coupled assay was used to evaluate the IC50 values of inhibitors by monitoring the production of SAH from SAM after methylation. […] The fluorescence signal was monitored on a BMG CLARIOstar microplate reader with excitation at 400 nm and emission at 465 nm for 18 min. Data were processed using GraphPad Prism software 7.0. All experiments were performed in duplicate.
The fluorescence signal was monitored on a BMG CLARIOstar microplate reader with excitation at 400 nm and emission at 465 nm for 18 min. Data were processed using GraphPad Prism software 7.0. All experiments were performed in duplicate. […].

Experiment [4] has as its system NTMT1. The experiment in a line: Selectivity SAHH-coupled fluorescence assay, NTMT1. From the text:
We chose the top four potent compounds (6b and 6l–n) to investigate their selectivities against several in-house methyltransferases including protein arginine methyltransferase TbPRMT7, two members of the protein lysine methyltransferase PKMT (G9a and SETD7), protein N-terminal methyltransferase 1 (NTMT1), and a small molecule methyltransferase nicotinamide N-methyltransferase (NNMT), all of which have a SAM binding site.
A fluorescence-based SAHH-coupled assay was applied to study the effect of the compound on methyltransferase activity of PRMT7, NTMT1, SETD7, G9a, NNMT, and SAHH. For PRMT7, the assay was performed in a final well volume of 100 μL: 25 mM Tris (pH = 7.5), 50 mM KCl, 0.01% Triton X-100, 5 μM SAHH, 0.2 μM PRMT7, 3 μM AdoMet, and 15 μM ThioGlo1. After incubation for 10 min with the inhibitor, reactions were initiated by the addition of 60 μM H4-21 peptide, and the reaction was monitored for 15 min. […] After incubation for 10 min with the inhibitor, reactions were initiated by the addition of 0.5 μM GPKRIA peptide, and the reaction was monitored for 15 min. […] After incubation for 10 min with the inhibitor, reactions were initiated by the addition of 90 μM H3-21 peptide, and the reaction was monitored for 15 min. […] After incubation for 10 min with the inhibitor, reactions were initiated by the addition of 10 μM nicotinamide, and the reaction was monitored for 18 min. […]

For experiment [5], the target named is T3, PRMT6 (Homo sapiens, UniProt Q96LA8).
T3 construct: purchased Reaction Biology
The experiment in a line: HotSpot radioisotope 3H-AdoMet methyltransferase assay, PRMT6. As for the experimental part:
as §1, §2

“Also recorded” adds a separate entry of the source. Read-outs that look alike come from different tables or passages of the source.

Data on one compound can be found in article PMC8230315, “A Pan-Inhibitor for Protein Arginine Methyltransferase Family Enzymes” (Biomolecules, 2021).

T1 sequence (Q99873 whole entry, species assumed): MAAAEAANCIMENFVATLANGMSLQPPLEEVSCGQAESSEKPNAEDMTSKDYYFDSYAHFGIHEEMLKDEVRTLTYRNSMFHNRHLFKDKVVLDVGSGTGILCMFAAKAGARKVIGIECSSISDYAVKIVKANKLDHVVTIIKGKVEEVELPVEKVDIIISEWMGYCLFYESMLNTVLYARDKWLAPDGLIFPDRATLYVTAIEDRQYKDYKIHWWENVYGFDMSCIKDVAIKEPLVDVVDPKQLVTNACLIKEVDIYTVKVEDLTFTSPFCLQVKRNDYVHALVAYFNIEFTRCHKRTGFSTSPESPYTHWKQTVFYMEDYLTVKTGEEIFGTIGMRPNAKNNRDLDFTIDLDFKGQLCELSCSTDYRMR
T3 sequence (Q96LA8 whole entry): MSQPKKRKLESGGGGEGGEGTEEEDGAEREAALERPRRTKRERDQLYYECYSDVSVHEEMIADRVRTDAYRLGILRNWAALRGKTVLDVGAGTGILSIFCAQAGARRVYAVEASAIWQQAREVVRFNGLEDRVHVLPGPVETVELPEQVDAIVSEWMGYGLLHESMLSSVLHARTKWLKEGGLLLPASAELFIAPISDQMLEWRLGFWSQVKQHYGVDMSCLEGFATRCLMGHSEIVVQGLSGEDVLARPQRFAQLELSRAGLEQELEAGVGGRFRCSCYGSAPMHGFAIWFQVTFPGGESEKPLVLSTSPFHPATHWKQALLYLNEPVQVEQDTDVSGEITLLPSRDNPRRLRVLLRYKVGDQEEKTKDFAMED

In the case of `N=C(NCCCSC[C@H]1O[C@@H](n2cnc3c(N)ncnc32)[C@H](O)[C@@H]1O)Nc1cccc(Br)c1` [Compound 6l, 1-(3-((((2S,3S,4R,5R)-5-(6-amino-9H-purin-9-yl)-3,4-dihydroxytetrahydrofuran-2-yl)methyl)thio)propyl)-3-(3-bromophenyl)guanidine], the “inhibition pattern versus peptide substrate H4-21” value in experiment [1] (H4-21 from 0.5 to 8 Km, SAM fixed at 10 µM) is given as “noncompetitive”. Also, the “inhibition pattern versus SAM” value in experiment [1] (SAM from 0.5 to 8 Km, H4-21 fixed at 5 µM, listed as II757) is on record as “competitively binds at the SAM binding site; also recorded: SAM-competitive inhibitor”. The 50% inhibitory concentration (IC50) – broadly, the concentration that gives 50% inhibition – in experiment [2] was 5 nM; in experiment [3] (PRMT1 0.1 µM, substrate concentration at 4 Km (footnote a), n = 2, mean ± SD), 0.09 ± 0.04 µM; in experiment [5], 0.0305 µM. For the same compound, the Ki was roughly 0.018 µM in experiment [3] (SAHH-coupled assay, PRMT1, read-out: apparent Ki) and 0.018 ± 0.008 µM in experiment [3] (calculated as Ki, app = IC50/(1 + [S]/Km), read-out: Ki, app). For the same compound, the “selectivity over NTMT1” value in experiment [4] is listed as “over 1000 fold”.
